The record followed here is PubChem BioAssay AID463204 (Broad Institute, 2010).

The source made the active and inactive calls.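 Rule for the calls: active = AC50 no more than ten times the top concentration tested, that is within one log above it; inconclusive = flat curve fit with activity between 30% and 70%, or invalid poor fit; inactive = AC50 beyond ten times the top tested dose.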 Where only a bound is given, the exact number is not on record here.

By AC50 is commonly meant the concentration giving half of the maximal activity seen.

This assay has as its system S. cerevisiae Mot1-301 ts growth rescue, BacTiter-Glo ATP luminescence. Kind of assay: restored Mot1-301 yeast growth at 38.5C – whole organism, S. cerevisiae, Mot1-301 ts mutant, luminescence, dose retest, SUMOylation pathway inhibitor project, confirmation (AID 463204).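 Note: growth at restrictive 38.5 degrees C of Mot1-301 OY566 strain; actives raise luminescence by restoring growth of the ts mutant at high temperature.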
For `COc1ccc(C)cc1S(=O)(=O)N1CCC(C(=O)NCCc2ccccc2)CC1`, the AC50 was > 42 µM (inactive).
The result for `N#C/C(=C\c1cc([N+](=O)[O-])c(N2CCOCC2)cc1N1CCOCC1)c1nc2ccccc2[nH]1` reads > 42 µM (inactive).
The result for `COc1ccc(NC(=O)c2cc(C)no2)cc1Cl` reads > 42 µM (inactive); that for `CCCc1nnc(NC(=O)c2cn(CC)c3cc(N4CCN(C)CC4)c(F)cc3c2=O)s1`, > 21 µM (inactive); that for `Cc1cc(C)n(CCOC(=O)C2C(C=C(Cl)Cl)C2(C)C)n1` (centres undefined), > 42 µM (inactive).
Under `Cc1cccc(/C=N/NC(=O)Cc2cccs2)c1` stands > 42 µM (inactive); under `Cc1cccc2nc3ccccc3cc12`, > 42 µM (inactive); under `CCCNC(=O)COC(=O)CCC(=O)c1cccs1`, > 42 µM (inactive).
`CCN(CC)c1nc(Nc2ccc(Cl)cc2)nc(OCC#N)n1`: the AC50 was > 42 µM (inactive).
The result for `O=c1cc(C(F)(F)F)c2sc(N3CCCCC3)nc2[nH]1` reads > 42 µM (inactive); that for `CCCn1nc(C(=O)NNC(=O)c2cc(S(=O)(=O)NC)ccc2Br)c2ccccc2c1=O`, > 42 µM (inactive).
Take `COc1ccc(-c2csc(NC(=O)CCS(=O)(=O)c3ccccc3)n2)c(OC)c1`: the AC50 is > 42 µM (inactive).
The result for `CCCCCCCCCCOC(=O)Cn1c(COc2ccc(OC)cc2)[n+](C)c2ccccc21` reads 6.72 µM.
With `Cc1ccc(NC(=O)CN2C(=O)COc3ccc(S(=O)(=O)N4CCOCC4)cc32)cc1F`, the AC50 was > 42 µM (inactive).
Consider `CCC12CN3CCN(CC(C3)/C1=N/NC(=O)c1ccncc1)C2`, for which the AC50 was > 42 µM (inactive).
Under `COc1ccc(N2CC(C(=O)N3CCc4ccccc43)CC2=O)cc1` (centres undefined) stands > 42 µM (inactive).
The result for `O=C(O)c1cc(S(=O)(=O)Nc2ccc(OCc3ccccc3)cc2)ccc1Br` reads > 42 µM (inactive); that for `CCCCn1c(/N=C/c2ccc3c(c2)OCO3)nc2ccccc21`, > 42 µM (inactive).
Under `Cc1cccn2c(=O)c3cc(C(=O)NCCc4ccccc4)sc3nc12` stands > 42 µM (inactive).
